Laboratory results taken from patent US20230338349A1, “LOW DOSE REGIMEN AND FORMULATION OF A 5-METHYL-1,2,4-OXADIAZOL-3-YL COMPOUND” (Eli Lilly and Company, priority 2020, published 2023).

Assay: Plasma concentration of compound of Formula I in the PET occupancy study
Format: in vivo
Conditions: human, healthy subjects; for concentration at 0.5 h: approx. 0.5 h; for concentration at 1 h: approx. 1 h; for concentration at 2 h: approx. 2 h; for concentration at 3 h: approx. 3 h; for concentration at 4 h: approx. 4 h; for concentration at 5 h: approx. 5 h; for concentration at 6 h: approx. 6 h; for concentration at 8 h: approx. 8 h; for concentration at 12 h: approx. 12 h; for concentration at 24 h: approx. 24 h
Description: Healthy subjects are assigned to 1 of 4 cohorts with 4 subjects in each cohort completing the study. All subjects undergo one baseline PET scan and two post-dose PET scans. A baseline PET scan is performed from up to approximately 14 days before dosing of the compound of Formula I. Overall, each subject receives a single dose of the compound of Formula I and 3 administrations of the [^18F]LSN3316612 PET tracer. Dosing of the compound of Formula I occurs after completion of the baseline PET scan. Scans are conducted at approximately 2 and 24 hours post-dose for the 0.25 mg and 5 mg doses of the compound of Formula I, and at approximately 2 and 24 hours or 30 and 54 hours post-dose for the 1 mg dose of the compound of Formula I. Dynamic PET data of the brain are acquired over 120 min immediately following tracer injection. EO is summarized by the compound of Formula I dose and approximate scanning time.
The compound of Formula I is administered orally in capsule formulation for doses≥3 mg. For doses lower than 3 mg, the compound of Formula I is weighed into a suitable container and dissolved in an appropriate volume of degassed Sprite® or diluent.
Arterial blood samples are collected from all subjects during each PET scan to measure radioactivity to provide input for the PET tracer kinetic analysis. Venous blood samples are collected following dosing of compound of Formula I to measure plasma concentrations of compound of Formula I using a validated liquid chromatography with tandem mass spectrometry assay.

## CC(=O)Nc1nc(F)c(CN2CC[C@H](OCc3noc(C)n3)C[C@@H]2C)s1 [compound of Formula I, N-[4-fluoro-5-[[(2S,4S)-2-methyl-4-[(5-methyl-1,2,4-oxadiazol-3-yl)methoxy]-1-piperidyl]methyl]thiazol-2-yl]acetamide]
Single oral dose 0.25 mg
  concentration at 0.5 h: 0.934 ng/mL
  concentration at 1 h: 0.595 ng/mL
  concentration at 2 h: 0.373 ng/mL
  concentration at 3 h: 0.391 ng/mL
  concentration at 4 h: 0.367 ng/mL
  concentration at 5 h: 0.39 ng/mL
  concentration at 6 h: 0.357 ng/mL
  concentration at 8 h: 0.294 ng/mL
  concentration at 12 h: 0.213 ng/mL
  concentration at 24 h: 0.107 ng/mL
Single oral dose 1 mg
  concentration at 0.5 h: 6.29 ng/mL
  concentration at 1 h: 6.24 ng/mL
  concentration at 2 h: 5.75 ng/mL
  concentration at 3 h: 4.97 ng/mL
  concentration at 4 h: 4.28 ng/mL
  concentration at 5 h: 3.87 ng/mL
  concentration at 6 h: 3.08 ng/mL
  concentration at 8 h: 2.45 ng/mL
  concentration at 12 h: 1.42 ng/mL
  concentration at 24 h: 0.412 ng/mL
Single oral dose 1 mg, approx. 30 h
  concentration at 30 h: 0.222 ng/mL
Single oral dose 1 mg, approx. 54 h
  concentration at 54 h: 0.0735 ng/mL
Single oral dose 5 mg
  concentration at 0.5 h: 32.4 ng/mL
  concentration at 1 h: 30.7 ng/mL
  concentration at 2 h: 36 ng/mL
  concentration at 3 h: 31.9 ng/mL
  concentration at 4 h: 31.5 ng/mL
  concentration at 5 h: 30.6 ng/mL
  concentration at 6 h: 25.3 ng/mL
  concentration at 8 h: 17.8 ng/mL
  concentration at 12 h: 12.5 ng/mL
  concentration at 24 h: 3.07 ng/mL
